Converted amounts (≈) assume the structure as drawn.
Columns and labels:
hα4 and β1 integrins = target: T1, hα4 and β1 integrins (Homo sapiens, UniProt P05556+P13612); assay: In vitro inhibition of binding between CHO cells expressing hα4 and β1 integrins and Eu3+-hVCAM-1 D1D7-IgG; settings: for Ki: CHO cells expressing hα4 and β1 integrins, Eu3+-hVCAM-1 D1D7-IgG ligand, without HSA; for IC50: in the presence of 3% human serum albumin (HSA final concentration 3%)
T1 construct: expressed in transfected cells; host or cells: CHO cells
T1 sequence (P13612 34-1032): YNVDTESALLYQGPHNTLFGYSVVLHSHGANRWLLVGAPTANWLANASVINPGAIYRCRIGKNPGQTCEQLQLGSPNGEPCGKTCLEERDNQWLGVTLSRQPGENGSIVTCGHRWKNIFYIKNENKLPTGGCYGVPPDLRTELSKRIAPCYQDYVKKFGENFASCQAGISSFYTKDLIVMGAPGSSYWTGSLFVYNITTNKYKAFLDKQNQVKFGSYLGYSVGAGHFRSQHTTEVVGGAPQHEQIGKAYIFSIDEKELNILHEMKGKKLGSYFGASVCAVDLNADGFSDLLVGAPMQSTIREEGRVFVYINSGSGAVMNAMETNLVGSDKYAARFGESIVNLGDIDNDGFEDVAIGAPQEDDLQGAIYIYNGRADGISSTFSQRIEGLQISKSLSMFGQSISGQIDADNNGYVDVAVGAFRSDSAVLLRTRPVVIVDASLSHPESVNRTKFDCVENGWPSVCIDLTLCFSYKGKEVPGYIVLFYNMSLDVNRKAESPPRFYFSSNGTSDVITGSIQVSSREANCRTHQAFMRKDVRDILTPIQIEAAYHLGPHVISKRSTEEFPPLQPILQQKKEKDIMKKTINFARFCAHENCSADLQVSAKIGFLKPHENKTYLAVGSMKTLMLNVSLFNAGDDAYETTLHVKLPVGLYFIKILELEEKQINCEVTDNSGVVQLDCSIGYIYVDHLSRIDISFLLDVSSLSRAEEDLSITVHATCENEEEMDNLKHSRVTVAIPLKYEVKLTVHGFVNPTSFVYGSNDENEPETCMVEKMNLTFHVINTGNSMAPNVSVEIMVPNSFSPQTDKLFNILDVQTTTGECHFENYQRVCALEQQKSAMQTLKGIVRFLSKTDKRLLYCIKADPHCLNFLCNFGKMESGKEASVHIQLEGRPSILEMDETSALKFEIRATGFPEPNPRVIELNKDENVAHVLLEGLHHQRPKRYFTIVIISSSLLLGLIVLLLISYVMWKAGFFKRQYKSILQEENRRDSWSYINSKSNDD
T1 sequence (P05556 21-798): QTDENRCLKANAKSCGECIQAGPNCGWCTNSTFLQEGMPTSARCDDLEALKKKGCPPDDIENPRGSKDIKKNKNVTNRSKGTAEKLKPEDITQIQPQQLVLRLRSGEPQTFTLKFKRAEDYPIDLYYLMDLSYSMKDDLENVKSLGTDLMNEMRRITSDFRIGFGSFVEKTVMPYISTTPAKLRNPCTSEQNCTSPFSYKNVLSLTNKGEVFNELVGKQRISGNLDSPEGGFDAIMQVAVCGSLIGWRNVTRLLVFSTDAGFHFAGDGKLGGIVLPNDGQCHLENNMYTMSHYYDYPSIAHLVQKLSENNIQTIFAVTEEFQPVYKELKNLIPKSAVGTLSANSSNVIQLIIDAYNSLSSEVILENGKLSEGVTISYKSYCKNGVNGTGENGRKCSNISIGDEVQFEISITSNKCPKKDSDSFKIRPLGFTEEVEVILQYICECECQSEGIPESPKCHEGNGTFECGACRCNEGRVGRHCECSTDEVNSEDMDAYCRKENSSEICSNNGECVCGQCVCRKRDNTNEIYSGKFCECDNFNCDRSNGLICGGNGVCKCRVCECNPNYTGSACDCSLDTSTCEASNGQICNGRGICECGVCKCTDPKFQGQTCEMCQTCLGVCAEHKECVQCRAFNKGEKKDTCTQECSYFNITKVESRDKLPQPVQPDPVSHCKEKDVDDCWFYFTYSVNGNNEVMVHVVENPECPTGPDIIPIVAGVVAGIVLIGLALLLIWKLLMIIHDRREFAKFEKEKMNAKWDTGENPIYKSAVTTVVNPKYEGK
Summary of the method: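 Transfected CHO cells, cultured 2 days, were incubated with compound and Eu³⁺-hVCAM-1 D1D7-IgG (diluted to 2 nM) for 1 h at room temperature. Buffer was 25 mM HEPES pH 7.5 with 1 mM Ca²⁺, 1 mM Mg²⁺, 4 mM Mn²⁺ and 0.1% BSA, ±3% HSA final. Cells were washed at 4 °C and read by DELFIA time-resolved fluorescence; Ki was derived from IC50 using the Scatchard Kd.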

[1] = Solubility test in first and second liquid of the Japanese Pharmacopoeia; settings: Solubility
Experimental: The solubilities of the substance under test in the first liquid (JP1, pH=1.2) of the Japanese Pharmacopoeia and the second liquid (JP2, pH=6.8) of the Japanese Pharmacopoeia, were evaluated.

[2] = first liquid of the Japanese Pharmacopoeia (JP1), pH 1.2, simulated gastric fluid, First liquid of Japanese Pharmacopoeia (μg/mL), JP1, pH=1.2
[3] = second liquid of the Japanese Pharmacopoeia (JP2), pH 6.8, aqueous buffer, Second liquid of Japanese Pharmacopoeia (μg/mL), JP2, pH=6.8

| Compound | Ki (hα4 and β1 integrins) [nM] | IC50 (hα4 and β1 integrins) [nM] | solubility [1, 2] [µg/mL] | solubility [1, 3] [µg/mL] |
| --- | --- | --- | --- | --- |
| COC1CN([C@H]2C[C@@H](CO[C@H]3CC[C@H](C(=O)O)CC3)N(C(=O)Cc3cc(Cl)c(NC(=O)c4cn(C)c5ccccc45)cc3F)C2)C1 [Example 1] | 1.9 | 15 | > 2000 | > 2000 |
| Cn1cc(C(=O)Nc2cc(Cl)c(CC(=O)N3C[C@@H](N4CC(C)(C)C4)C[C@H]3CO[C@H]3CC[C@H](C(=O)O)CC3)cc2Cl)c2ccccc21 [Example 15, Trans-4-[1-[[2,5-dichloro-4-[(1-methyl-1H-indol-3-ylcarbonyl)amino]phenyl]acetyl]-(4S)-(3,3-dimethylazetidin-1-yl)-(2S)-pyrrolidinylmethoxy]cyclohexanecarboxylic acid] |  |  | 1100 (≈ 1640 µM) | 1100 (≈ 1640 µM) |
| CCOC1CN([C@H]2C[C@@H](CO[C@H]3CC[C@H](C(=O)O)CC3)N(C(=O)Cc3cc(Cl)c(NC(=O)c4cn(C)c5ccccc45)cc3Cl)C2)C1 [Example 20, Trans-4-[1-[[2,5-dichloro-4-[(1-methyl-1H-indol-3-ylcarbonyl)amino]phenyl]acetyl]-(4S)-(3-ethoxyazetidin-1-yl)-(2S)-pyrrolidinylmethoxy]cyclohexanecarboxylic acid] | 3.9 | 40 | > 2000 | 1920 (≈ 2800 µM) |
| O=C(Nc1cc(F)c(CC(=O)N2C[C@@H](N3CCSCC3)C[C@H]2CO[C@H]2CC[C@H](C(=O)O)CC2)cc1Cl)c1coc2ccccc12 [Example 159, Trans-4-[1-[[4-[(benzo[b]furan-3-ylcarbonyl)amino]-5-chloro-2-fluorophenyl]acetyl]-(4S)-(thiomorpholin-4-yl)-(2S)-pyrrolidinylmethoxy]cyclohexanecarboxylic acid] | 4.4 | 13 |  |  |
| Cn1cc(C(=O)Nc2cc(F)c(CC(=O)N3C[C@@H](N4CC5CC4CO5)C[C@H]3CO[C@H]3CC[C@H](C(=O)O)CC3)cc2Cl)c2ccccc21 (stereo partly drawn) [Example 163, Trans-4-[1-[[5-chloro-2-fluoro-4-[(1-methyl-1H-indol-3-ylcarbonyl)amino]phenyl]acetyl]-(4S)-[(1S,4S)-2-oxa-5-azabicyclo[2.2.1]heptan-5-yl]-(2S)-pyrrolidinylmethoxy]cyclohexanecarboxylic acid] | 6.4 | 36 |  |  |
| O=C(Nc1cc(Cl)c(CC(=O)N2C[C@@H](N3CCCOCC3)C[C@H]2CO[C@H]2CC[C@H](C(=O)O)CC2)cc1Cl)c1csc2ccccc12 [Example 166, Trans-4-[1-[[4-[(benzo[b]thiophen-3-ylcarbonyl)amino]-2,5-dichlorophenyl]acetyl]-(4S)-([1,4]-oxazepan-4-yl)-(2S)-pyrrolidinylmethoxy]cyclohexanecarboxylic acid] | 1.7 | 8.2 |  |  |
| O=C(Nc1cc(Cl)c(CC(=O)N2C[C@@H](N3CCCOCC3)C[C@H]2CO[C@H]2CC[C@H](C(=O)O)CC2)cc1Cl)c1coc2ccccc12 [Example 167, Trans-4-[1-[[4-[(benzo[b]furan-3-ylcarbonyl)amino]-2,5-dichlorophenyl]acetyl]-(4S)-([1,4]-oxazepan-4-yl)-(2S)-pyrrolidinylmethoxy]cyclohexanecarboxylic acid] | 4.4 | 19 |  |  |
| O=C(Nc1cc(F)c(CC(=O)N2C[C@@H](N3CCCOCC3)C[C@H]2CO[C@H]2CC[C@H](C(=O)O)CC2)cc1Cl)c1coc2ccccc12 [Example 168, Trans-4-[1-[[4-[(benzo[b]furan-3-ylcarbonyl)amino]-5-chloro-2-fluorophenyl]acetyl]-(4S)-([1,4]-oxazepan-4-yl)-(2-S)-pyrrolidinylmethoxy]cyclohexanecarboxylic acid] | 2 | 9.4 |  |  |
| O=C(Nc1cc(Cl)c(CC(=O)N2C[C@@H](N3CCCN(C4CC4)CC3)C[C@H]2CO[C@H]2CC[C@H](C(=O)O)CC2)cc1Cl)c1csc2ccccc12 [Example 169, Trans-4-[1-[[4-[(benzo[b]thiophen-3-ylcarbonyl)amino]2,5-dichlorophenyl]acetyl]-(4S)-(4-cyclopropyl-[1,4]-diazepan-1-yl)-(2S)-pyrrolidinylmethoxy]cyclohexanecarboxylic acid] | 1.1 | 5.9 |  |  |
| CS(=O)(=O)N1CCCN([C@H]2C[C@@H](CO[C@H]3CC[C@H](C(=O)O)CC3)N(C(=O)Cc3cc(Cl)c(NC(=O)c4coc5ccccc45)cc3F)C2)CC1 [Example 170, Trans-4-[1-[[4-[(benzo[b]furan-3-ylcarbonyl)amino]-5-chloro-2-fluorophenyl]acetyl]-(4S)-(4-methanesulfonyl[1,4]-diazepan-1-yl)-(2S)-pyrrolidinylmethoxy]cyclohexanecarboxylic acid] | 2.6 | 11 |  |  |

Further lines, results first:

| Ki (hα4 and β1 integrins) [nM] | IC50 (hα4 and β1 integrins) [nM] | solubility [1, 2] [µg/mL] | solubility [1, 3] [µg/mL] | Compound |
| --- | --- | --- | --- | --- |
| 1 | 8.6 | 1910 (≈ 2780 µM) | 1690 (≈ 2460 µM) | COCCC1CN([C@H]2C[C@@H](CO[C@H]3CC[C@H](C(=O)O)CC3)N(C(=O)Cc3cc(Cl)c(NC(=O)c4csc5ccccc45)cc3F)C2)C1 [Example 12, Trans-4-[1-[[4-[(benzo[b]thiophen-3-ylcarbonyl)amino]-5-chloro-2-fluorophenyl]acetyl]-(4S)-[3-(2-methoxyethyl)azetidin-1-yl]-(2S)-pyrrolidinylmethoxy]cyclohexanecarboxylic acid] |
|  |  | 1100 (≈ 1680 µM) | 1000 (≈ 1530 µM) | Cn1cc(C(=O)Nc2cc(F)c(CC(=O)N3C[C@@H](N4CC(C)(C)C4)C[C@H]3CO[C@H]3CC[C@H](C(=O)O)CC3)cc2Cl)c2ccccc21 [Example 14, Trans-4-[1-[[5-chloro-2-fluoro-4-[(1-methyl-1H-indol-3-ylcarbonyl)amino]phenyl]acetyl]-(4S)-(3,3-dimethylazetidin-1-yl)-(2S)-pyrrolidinylmethoxy]cyclohexanecarboxylic acid] |
| 3.8 | 43 | 1000 (≈ 1400 µM) | 1000 (≈ 1400 µM) | O=C(Nc1cc(F)c(CC(=O)N2C[C@@H](N3CC(N4CCOCC4)C3)C[C@H]2CO[C@H]2CC[C@H](C(=O)O)CC2)cc1Cl)c1csc2ccccc12 [Example 27, Trans-4-[1-[[4-[(benzo[b]thiophen-3-ylcarbonyl)amino]-5-chloro-2-fluorophenyl]acetyl]-(4S)-[3-(4-morpholinyl)azetidin-1-yl]-(2S)-pyrrolidinylmethoxy]cyclohexanecarboxylic acid] |
| 2.4 | 9.9 |  |  | Cn1cc(C(=O)Nc2cc(F)c(CC(=O)N3C[C@@H](N4CCS(=O)(=O)CC4)C[C@H]3CO[C@H]3CC[C@H](C(=O)O)CC3)cc2Cl)c2ccccc21 [Example 160, Trans-4-[1-[[5-chloro-2-fluoro-4-[(1-methyl-1H-indol-3-ylcarbonyl)amino]phenyl]acetyl]-(4S)-(1,1-dioxo-1λ^6-thiomorpholin-4-yl)-(2S)-pyrrolidinylmethoxy]cyclohexanecarboxylic acid] |
| 6.5 | 49 |  |  | Cn1cc(C(=O)Nc2cc(Cl)c(CC(=O)N3C[C@@H](N4CC5CC4CO5)C[C@H]3CO[C@H]3CC[C@H](C(=O)O)CC3)cc2Cl)c2ccccc21 (stereo partly drawn) [Example 162, Trans-4-[1-[[2,5-dichloro-4-[1-methyl-1H-indol-3-ylcarbonylamino]phenyl]acetyl]-(4S)-[(1S,4S)-2-oxa-5-azabicyclo[2.2.1]heptan-5-yl]-(2S)-pyrrolidinylmethoxy]cyclohexanecarboxylic acid] |

— US8129366B2, “VLA-4 inhibitory drug” (Daiichi Sankyo Company, Limited, priority 2005, dated 2012)
